# Test results taken from US10238713B2, “Cyclic tetrapeptides and therapeutic applications thereof” (LODZ UNIVERSITY OF TECHNOLOGY, priority 2010, dated 2019).
# Residues, ends and D or L forms follow the SMILES beside them.
# Test system: human peripheral mononuclear blood cells (PBMC)
# Assay: Cytotoxic test on human blood mononuclear cells (24 h, colorimetric)
# Conditions: at 40 μg/ml, FIG. 5
# Method: For evaluation of toxicity of the compound of formula I-A, human peripheral mononuclear blood cells (PBMC) were chosen. This fraction consists of approximately 80% lymphocytes and 20% monocytes. As a reference compound, cyclolinopeptide (CLA) was selected since the compound of formula I-A shares a part of the sequence of CLA.
# After centrifugation at 1200×g for 20 min, the mononuclear cells from the interphase were harvested and washed 3 times with PBS. The cells were re-suspended in a standard culture medium consisting of RPMI-1640 medium, L-glutamine, sodium pyruvate, 2-mercaptoethanol, 100 μg/ml each of streptomycin and penicillin, and 10% fetal calf serum. The cells were distributed to in 96-well flat-bottom culture plates at density of 2×10^5/100 μl. The compounds (formula I-A and CLA) were initially dissolved in DMSO (5 mg/500 μl) and subsequently in the culture medium. DMSO, appropriately diluted with the culture medium, was used as a control. After 24 h incubation in a cell culture incubator, cell viability was determined by a colorimetric method (Hansen et al., J Immunol Methods, 1989, 119, 203-210).
compound,measurement,value
"CC[C@H](C)[C@@H]1NC(=O)[C@H](CC(C)C)NC(=O)[C@H](Cc2ccccc2)NC(=O)[C@H](Cc2ccccc2)NC(=O)[C@@H]2CCCN2C(=O)[C@@H]2CCCN2C(=O)[C@H](C(C)C)NC(=O)[C@H](CC(C)C)NC(=O)[C@H]([C@@H](C)CC)NC1=O [CLA, Cyclolinopeptide A] (cyclo(FFLIILVPP))",cytotoxic effect on PBMC,statistically significant cytotoxic effect
